Experimental findings from USRE37355E, “6-dimethylaminomethyl-1-phenyl-cyclohexane compounds as pharmaceutical active ingredients” (priority 1995, dated 2001) are described below.

A word on the ED50: it is the midpoint of the dose-response relation.

For one assay, the system named is mice. The assay can be described thus: Testing for analgesia using the tail flick test on mice. The assay is classed as in vivo, NMRI mice. The note with it: Mus musculus, 20 min; NMRI mice, intravenous, 20 minutes after administration; Litchfield and Wilcoxon; read-out: ED50 (tail flick test, analgesia). The source says:
Testing for analgesia using the tail flick test on mice
The analgesic effectiveness of the compounds according to the invention was investigated in the thermal radiation (tail flick) test on mice using the method of D'Amour and Smith (J. Pharm. Exp. Ther. 72, 74-79 (1941). […]. The animals were placed in a special test cage and the bases of their tails were exposed to the focused thermal radiation from an electric lamp (Rhema Analgesiemeter Type 3010). The lamp intensity was adjusted so that the time from switching on the lamp until the sudden twitching away of the tail (latency of pain) was 3-5 seconds for untreated animals. Before the administration of a compound according to the invention, the animals were pre-tested twice within five minutes and the average value of these measurements was calculated as the pre-test average. The pain measurement was made 20, 40 and 60 minutes after intravenous administration. […]. In order to determine the dosage-dependency, the respective compound according to the invention was applied in doses increasing logarithmically by a factor of 3-5, which included the threshold and the maximum effective dose each time. The ED50 values were determined from the number of analgesic animals by the method of Litchfield and Wilcoxon (J. Pharm. Exp. Ther. 96, 99-113, (1949)). Calculation of the ED50 was made at the effective maximum 20 minutes after intraveneous adminstration of the substance.
As to `CN(C)C[C@H]1CCCC[C@]1(F)c1cccc(O)c1.Cl` [(+1), (+)-(1R,2R)-3-(2-dimethylaminomethyl-1-fluoro-cyclohexyl)-phenol hydrochloride], the median effective dose (ED50) turned out to be 0.64 mg/kg. For `CC(=O)Oc1ccccc1C(=O)Oc1cccc([C@@H]2CCCC[C@@H]2CN(C)C)c1.Cl` [(-10), (-)-(1R,2S)-2-acetoxy-benzoic acid-3-(2-dimethylaminomethyl-cyclohexyl)-phenyl ester hydrochloride], the ED50 turned out to be 8.71 mg/kg.

As for `CC(C)COC(=O)Oc1cccc([C@@H]2CCCC[C@@H]2CN(C)C)c1.Cl` [(-11), (-)-(1R,2S)-carbonic acid-[3-(2-dimethylaminomethyl-cyclohexyl)-phenyl]-ester-isobutyl ester hydrochloride], the 50% effective dose (ED50) was found to be 5.01 mg/kg. On to `COc1cccc([C@@]2(O)C[C@H](O)CC[C@@H]2CN(C)C)c1.Cl` [(+17), (+)-(1R,3R,6R)-6dimethylaminomethyl-1-(3-methoxy-phenyl)-cyclohexane-1,3-diol hydrochloride], for which the ED50 is 3.93 mg/kg.

On to `CN(C)C[C@H]1CCCC[C@H]1c1cccc(O)c1.Cl` [(-7), (-)-(1R,2S)-3-(2-dimethylaminomethyl-cyclohexyl)-phenol hydrochloride], for which the ED50 was found to be 5.9 mg/kg. On to `CN(C)C[C@@H]1CCCC[C@@]1(F)c1cccc(O)c1.Cl` [(-1), (-)-(1S,2S)-3-(2-dimethylaminomethyl-1-fluoro-cyclohexyl)-phenol hydrochloride], for which the ED50 was determined as 2.28 mg/kg. Consider `COc1cccc([C@@]2(O)C[C@H](O)CC[C@@H]2CN(C)C)c1.Cl` (racemic) [(17), (1RS,3RS,6RS)-6-dimethylaminomethyl-1-(3-methoxy-phenyl)-cyclohexane-1,3-diol hydrochloride], for which the ED50 is 5.54 mg/kg. Regarding `CN(C)C[C@H]1CC[C@@H](O)C[C@]1(O)c1cccc(O)c1.Cl` [(+21), (+)-(1R,3R,6R)-6-dimethylaminomethyl-1-(3-hydroxy-phenyl)-cyclohexane-1,3-diol hydrochloride], the ED50 came to 7.34 mg/kg. For `COc1cccc([C@@H]2CCCC[C@@H]2CN(C)C)c1.Cl` [(+6), (+)-(1S,2R)-[2-(3-methoxy-phenyl)-cyclohexylmethyl]-dimethylamine hydrochloride], the ED50 came out at 10.7 mg/kg.

`CN(C)C[C@H]1CCCC[C@]1(Cl)c1cccc(O)c1.Cl` [(+5), (+)-(1R,2R)-3-(1-chloro-2-dimethylaminomethyl-cyclohexyl)-phenol hydrochloride]: the ED50 was 2.78 mg/kg. The same measure, in the same setting: as for `CN(C)C[C@H]1CCCC[C@H]1c1cccc(OC(=O)C(C)(C)C)c1.Cl` [(-8), (-)-(1R,2S)-2,2-dimethylpropionic acid-3-(2-dimethylaminomethyl-cyclohexyl)-phenyl ester hydrochloride], the figure is 4.61 mg/kg; as for `CN(C)C[C@@H]1CCCC[C@@H]1c1cccc(O)c1.Cl` [(+7), (+)-(1S,2R)-3-(2-dimethylaminomethyl-cyclohexyl)-phenol hydrochloride], 1.13 mg/kg.

Staying with this assay, now noted: Mus musculus, iv, 20 min, read-out: ED50 (tail flick test, analgesia).
With `COc1cccc([C@@]2(O)CCCC[C@@H]2CN(C)C)c1.Cl` (racemic) [Tramadol, (1RS,2RS)-2[(dimethylamino)methyl]-1-(3-methoxyphenyl)cyclohexanol hydrochloride, reference compound], the ED50 turned out to be 13.6 mg/kg.
